Measured values taken from article PMC6934184, “Selective DNA-PKcs inhibition extends the therapeutic index of localized radiotherapy and chemotherapy” (The Journal of Clinical Investigation, 2019).

Target: T1, PKN1 (PRK1) (Homo sapiens, UniProt Q16512)
T1 construct: purchased Thermo Fisher Scientific (Life Technologies) SelectScreen
Assay: SelectScreen Z'LYTE
Format: biochemical
Procedure, shortened: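 Percent values come from Thermo SelectScreen profiling of NU5455, combining activity and binding assays. CSF1R was run in Z'LYTE format at Km app ATP, and CAMK1 in Adapta format with ATP listed at 10.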

T1 sequence (Q16512 whole entry): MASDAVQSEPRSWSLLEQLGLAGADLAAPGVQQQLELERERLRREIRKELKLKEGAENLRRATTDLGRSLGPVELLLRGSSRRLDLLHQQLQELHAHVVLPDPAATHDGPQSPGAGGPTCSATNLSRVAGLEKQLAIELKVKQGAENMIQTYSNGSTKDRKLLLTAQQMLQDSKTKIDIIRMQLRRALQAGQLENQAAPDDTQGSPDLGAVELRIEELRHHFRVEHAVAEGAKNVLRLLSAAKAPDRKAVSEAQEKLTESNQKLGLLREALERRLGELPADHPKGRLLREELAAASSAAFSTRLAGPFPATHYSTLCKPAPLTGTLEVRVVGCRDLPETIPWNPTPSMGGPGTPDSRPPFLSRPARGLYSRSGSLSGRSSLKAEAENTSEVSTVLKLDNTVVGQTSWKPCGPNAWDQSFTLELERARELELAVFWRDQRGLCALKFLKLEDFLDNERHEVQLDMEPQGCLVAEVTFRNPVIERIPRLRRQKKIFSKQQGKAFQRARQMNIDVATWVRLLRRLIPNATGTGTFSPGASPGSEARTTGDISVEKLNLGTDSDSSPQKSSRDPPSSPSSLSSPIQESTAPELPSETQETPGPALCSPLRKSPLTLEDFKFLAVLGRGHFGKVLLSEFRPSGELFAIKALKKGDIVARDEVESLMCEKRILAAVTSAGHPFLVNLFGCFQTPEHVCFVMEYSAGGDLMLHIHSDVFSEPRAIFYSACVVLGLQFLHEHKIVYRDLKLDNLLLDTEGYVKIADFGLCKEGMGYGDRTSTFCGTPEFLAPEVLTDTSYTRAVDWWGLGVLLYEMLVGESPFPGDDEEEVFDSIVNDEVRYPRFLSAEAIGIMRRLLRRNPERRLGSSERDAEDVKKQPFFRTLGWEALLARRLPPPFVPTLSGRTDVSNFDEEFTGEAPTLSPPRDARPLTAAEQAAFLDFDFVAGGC

Question: Which inhibition at 1 µM does the source give for `CN(C(=O)CN1CCOCC1)c1ccc2sc3c(-c4cccc5c(=O)cc(N6CC7CCC(C6)O7)oc45)cccc3c2c1` [NU5455] here?
Answer: 3.6%
